Test results as given in patent US9249129B2, “Morpholino substituted urea derivatives as mTOR inhibitors” (CELLZOME LIMITED, priority 2010, dated 2016).

Tests used:
Assay in all cases: kinobeads assay with mass spectrometry detection of kinases (kinase selectivity profile)
Type in all cases: binding
kinases (kinome) [1] = biological target: T1, kinases (kinome) (Homo sapiens, UniProt Q9HCP0); settings: CK1g1 (CK1), IPI00791893
T1 construct: determined in kinobeads assays with mass spectrometry detection of kinases as described previously; endogenous in cells; host or cells: cell lysate
Text: (§1) The protein kinase complement of the human genome (the kinome) was described previously (Manning et al., 2002. Science 298(5600):1912-1934). Sequence accession numbers are defined by the International Protein Index (IPI) (Kersey et al., 2004. Proteomics 4(7):1985-1988).

kinases (kinome) [2] = biological target: T2, kinases (kinome) (Homo sapiens, UniProt Q12851); settings: GCK (STE), IPI00149094
T2 construct: determined in kinobeads assays with mass spectrometry detection of kinases as described previously; endogenous in cells; host or cells: cell lysate
T2 sequence (Q12851 1-820): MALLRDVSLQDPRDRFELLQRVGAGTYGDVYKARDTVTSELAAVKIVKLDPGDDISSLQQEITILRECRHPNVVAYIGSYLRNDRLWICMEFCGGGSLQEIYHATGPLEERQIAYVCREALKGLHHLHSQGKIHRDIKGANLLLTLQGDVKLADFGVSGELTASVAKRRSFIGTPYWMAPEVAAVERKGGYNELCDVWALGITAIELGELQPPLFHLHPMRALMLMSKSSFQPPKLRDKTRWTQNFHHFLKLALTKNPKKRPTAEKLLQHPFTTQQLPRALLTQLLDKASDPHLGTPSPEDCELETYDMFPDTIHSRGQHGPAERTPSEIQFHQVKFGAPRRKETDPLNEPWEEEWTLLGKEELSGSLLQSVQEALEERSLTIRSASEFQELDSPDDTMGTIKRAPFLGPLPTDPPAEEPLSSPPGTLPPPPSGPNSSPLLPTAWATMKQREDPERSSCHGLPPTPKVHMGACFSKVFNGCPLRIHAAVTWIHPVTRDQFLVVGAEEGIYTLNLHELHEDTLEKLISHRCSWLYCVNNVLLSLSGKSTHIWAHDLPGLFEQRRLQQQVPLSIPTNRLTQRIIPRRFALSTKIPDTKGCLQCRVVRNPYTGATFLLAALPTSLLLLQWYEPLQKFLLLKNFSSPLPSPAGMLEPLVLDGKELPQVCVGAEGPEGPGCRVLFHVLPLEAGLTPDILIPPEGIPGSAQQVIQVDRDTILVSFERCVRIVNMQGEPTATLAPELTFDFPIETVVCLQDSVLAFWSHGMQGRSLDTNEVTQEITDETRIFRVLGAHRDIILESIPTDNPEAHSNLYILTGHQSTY
Text: as §1

kinases (kinome) [3] = biological target: T3, kinases (kinome) (Homo sapiens, UniProt Q15569); settings: TESK1 (TKL), IPI00018182
T3 construct: determined in kinobeads assays with mass spectrometry detection of kinases as described previously; endogenous in cells; host or cells: cell lysate
Text: as §1

kinases (kinome) [4] = biological target: T4, kinases (kinome) (Homo sapiens, UniProt Q96RR4); settings: CaMKK2 (Other), IPI00290239
T4 construct: determined in kinobeads assays with mass spectrometry detection of kinases as described previously; endogenous in cells; host or cells: cell lysate
Text: as §1

kinases (kinome) [5] = biological target: T5, kinases (kinome) (Homo sapiens, UniProt O00329); settings: PIK3Cd (Lipid Kinase), IPI00384817
T5 construct: determined in kinobeads assays with mass spectrometry detection of kinases as described previously; endogenous in cells; host or cells: cell lysate
T5 sequence (O00329 1-1044): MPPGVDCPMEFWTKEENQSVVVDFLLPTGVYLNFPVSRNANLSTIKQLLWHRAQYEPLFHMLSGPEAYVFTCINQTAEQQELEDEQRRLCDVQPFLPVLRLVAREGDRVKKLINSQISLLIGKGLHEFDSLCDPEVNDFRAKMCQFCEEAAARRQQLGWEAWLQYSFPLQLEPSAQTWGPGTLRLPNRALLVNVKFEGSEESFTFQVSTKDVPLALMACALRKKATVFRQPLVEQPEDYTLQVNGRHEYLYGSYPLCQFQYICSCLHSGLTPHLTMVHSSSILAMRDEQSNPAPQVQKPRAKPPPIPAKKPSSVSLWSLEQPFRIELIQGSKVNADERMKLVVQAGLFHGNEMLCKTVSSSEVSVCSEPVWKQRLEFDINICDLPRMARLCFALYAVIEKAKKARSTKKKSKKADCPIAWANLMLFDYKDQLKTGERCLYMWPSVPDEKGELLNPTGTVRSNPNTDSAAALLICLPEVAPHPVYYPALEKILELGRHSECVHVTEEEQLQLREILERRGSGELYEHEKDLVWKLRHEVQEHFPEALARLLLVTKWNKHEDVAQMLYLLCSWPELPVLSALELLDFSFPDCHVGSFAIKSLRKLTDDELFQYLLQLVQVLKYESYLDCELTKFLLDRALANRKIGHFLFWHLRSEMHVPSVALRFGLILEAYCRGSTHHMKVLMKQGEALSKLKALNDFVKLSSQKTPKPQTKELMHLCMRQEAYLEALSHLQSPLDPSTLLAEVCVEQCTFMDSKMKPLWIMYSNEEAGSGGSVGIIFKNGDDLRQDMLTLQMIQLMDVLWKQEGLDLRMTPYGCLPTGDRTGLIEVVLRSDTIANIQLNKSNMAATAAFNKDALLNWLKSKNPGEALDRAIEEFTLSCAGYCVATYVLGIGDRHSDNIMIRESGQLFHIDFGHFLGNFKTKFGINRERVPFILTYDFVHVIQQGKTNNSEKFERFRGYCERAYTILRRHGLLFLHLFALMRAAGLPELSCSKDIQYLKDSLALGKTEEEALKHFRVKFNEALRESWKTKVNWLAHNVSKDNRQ
Text: as §1

kinases (kinome) [6] = biological target: T6, kinases (kinome) (Homo sapiens, UniProt P30291); settings: Wee1 (Other), IPI00025830
T6 construct: determined in kinobeads assays with mass spectrometry detection of kinases as described previously; endogenous in cells; host or cells: cell lysate
Text: as §1

kinases (kinome) [7] = biological target: T7, kinases (kinome) (Homo sapiens, UniProt P45983); settings: JNK1 (CMGC), IPI00220306
T7 construct: determined in kinobeads assays with mass spectrometry detection of kinases as described previously; endogenous in cells; host or cells: cell lysate
Text: as §1

kinases (kinome) [8] = biological target: T8, kinases (kinome) (Homo sapiens, UniProt Q8TCG2); settings: PIK4C2B (Lipid Kinase), IPI00291068
T8 construct: determined in kinobeads assays with mass spectrometry detection of kinases as described previously; endogenous in cells; host or cells: cell lysate
Text: as §1

kinases (kinome) [9] = biological target: T9, kinases (kinome) (Homo sapiens, UniProt Q05397); settings: FAK (TK), IPI00413961
T9 construct: determined in kinobeads assays with mass spectrometry detection of kinases as described previously; endogenous in cells; host or cells: cell lysate
Text: as §1

T4 sequence (Q96RR4 whole entry): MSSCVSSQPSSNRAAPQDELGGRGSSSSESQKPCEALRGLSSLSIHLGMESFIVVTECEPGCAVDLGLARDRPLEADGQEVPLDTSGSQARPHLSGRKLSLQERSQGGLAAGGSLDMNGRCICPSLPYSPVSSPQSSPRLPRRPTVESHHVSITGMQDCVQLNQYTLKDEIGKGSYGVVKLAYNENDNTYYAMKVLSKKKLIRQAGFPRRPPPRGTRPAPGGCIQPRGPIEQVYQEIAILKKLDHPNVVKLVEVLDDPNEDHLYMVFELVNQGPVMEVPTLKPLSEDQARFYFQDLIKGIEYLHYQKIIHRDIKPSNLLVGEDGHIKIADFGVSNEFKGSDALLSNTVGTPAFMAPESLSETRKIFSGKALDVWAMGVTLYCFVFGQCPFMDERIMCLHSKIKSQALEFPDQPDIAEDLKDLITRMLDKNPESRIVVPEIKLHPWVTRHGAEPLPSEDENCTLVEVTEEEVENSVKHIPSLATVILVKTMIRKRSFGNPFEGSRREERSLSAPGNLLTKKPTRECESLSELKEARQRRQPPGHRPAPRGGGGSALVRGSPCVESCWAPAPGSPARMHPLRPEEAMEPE
T6 sequence (P30291 whole entry): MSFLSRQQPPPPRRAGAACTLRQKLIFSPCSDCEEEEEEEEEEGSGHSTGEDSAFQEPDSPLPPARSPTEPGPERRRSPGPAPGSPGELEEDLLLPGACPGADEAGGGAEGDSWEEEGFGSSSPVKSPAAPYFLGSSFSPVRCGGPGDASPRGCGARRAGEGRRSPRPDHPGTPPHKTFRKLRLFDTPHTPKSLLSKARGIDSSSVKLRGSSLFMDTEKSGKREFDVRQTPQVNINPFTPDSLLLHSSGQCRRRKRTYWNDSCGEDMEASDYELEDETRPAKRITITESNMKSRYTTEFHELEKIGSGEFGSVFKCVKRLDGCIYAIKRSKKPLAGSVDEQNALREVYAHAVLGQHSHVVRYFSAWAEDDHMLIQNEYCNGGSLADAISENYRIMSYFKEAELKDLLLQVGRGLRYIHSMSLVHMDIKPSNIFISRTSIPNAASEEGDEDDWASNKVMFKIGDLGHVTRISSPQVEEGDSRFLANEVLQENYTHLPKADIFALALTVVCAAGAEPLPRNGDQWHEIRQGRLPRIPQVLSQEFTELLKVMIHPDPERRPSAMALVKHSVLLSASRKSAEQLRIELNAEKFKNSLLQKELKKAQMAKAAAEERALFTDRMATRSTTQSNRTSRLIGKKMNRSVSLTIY
T3 sequence (Q15569 whole entry): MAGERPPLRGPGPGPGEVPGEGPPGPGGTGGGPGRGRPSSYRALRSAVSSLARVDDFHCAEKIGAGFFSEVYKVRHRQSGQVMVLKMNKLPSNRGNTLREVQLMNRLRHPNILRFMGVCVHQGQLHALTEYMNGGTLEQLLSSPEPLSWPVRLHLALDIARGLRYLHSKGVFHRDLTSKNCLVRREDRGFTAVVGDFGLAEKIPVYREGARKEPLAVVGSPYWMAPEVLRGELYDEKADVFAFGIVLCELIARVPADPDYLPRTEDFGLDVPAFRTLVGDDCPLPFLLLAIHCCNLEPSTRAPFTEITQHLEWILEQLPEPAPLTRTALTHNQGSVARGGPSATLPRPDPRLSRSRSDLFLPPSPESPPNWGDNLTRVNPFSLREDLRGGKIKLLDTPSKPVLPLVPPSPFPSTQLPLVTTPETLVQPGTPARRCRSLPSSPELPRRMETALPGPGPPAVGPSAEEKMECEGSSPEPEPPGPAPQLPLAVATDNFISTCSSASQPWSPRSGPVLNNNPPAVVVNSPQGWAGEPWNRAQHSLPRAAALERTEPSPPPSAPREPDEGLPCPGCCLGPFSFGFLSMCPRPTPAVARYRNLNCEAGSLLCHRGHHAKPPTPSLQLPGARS
T8 sequence (Q8TCG2 whole entry): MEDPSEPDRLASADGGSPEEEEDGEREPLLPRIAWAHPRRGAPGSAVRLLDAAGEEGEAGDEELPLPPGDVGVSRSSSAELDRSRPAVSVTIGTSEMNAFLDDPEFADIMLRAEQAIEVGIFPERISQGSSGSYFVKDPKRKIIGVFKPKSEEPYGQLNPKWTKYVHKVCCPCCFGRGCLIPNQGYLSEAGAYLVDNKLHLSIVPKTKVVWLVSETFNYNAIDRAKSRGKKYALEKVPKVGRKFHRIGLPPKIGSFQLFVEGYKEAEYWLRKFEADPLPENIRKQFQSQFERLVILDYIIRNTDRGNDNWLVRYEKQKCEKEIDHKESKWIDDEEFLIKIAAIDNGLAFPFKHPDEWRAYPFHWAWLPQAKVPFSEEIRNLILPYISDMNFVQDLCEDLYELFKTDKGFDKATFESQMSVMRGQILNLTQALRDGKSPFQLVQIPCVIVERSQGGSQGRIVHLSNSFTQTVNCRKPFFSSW
T9 sequence (Q05397 whole entry): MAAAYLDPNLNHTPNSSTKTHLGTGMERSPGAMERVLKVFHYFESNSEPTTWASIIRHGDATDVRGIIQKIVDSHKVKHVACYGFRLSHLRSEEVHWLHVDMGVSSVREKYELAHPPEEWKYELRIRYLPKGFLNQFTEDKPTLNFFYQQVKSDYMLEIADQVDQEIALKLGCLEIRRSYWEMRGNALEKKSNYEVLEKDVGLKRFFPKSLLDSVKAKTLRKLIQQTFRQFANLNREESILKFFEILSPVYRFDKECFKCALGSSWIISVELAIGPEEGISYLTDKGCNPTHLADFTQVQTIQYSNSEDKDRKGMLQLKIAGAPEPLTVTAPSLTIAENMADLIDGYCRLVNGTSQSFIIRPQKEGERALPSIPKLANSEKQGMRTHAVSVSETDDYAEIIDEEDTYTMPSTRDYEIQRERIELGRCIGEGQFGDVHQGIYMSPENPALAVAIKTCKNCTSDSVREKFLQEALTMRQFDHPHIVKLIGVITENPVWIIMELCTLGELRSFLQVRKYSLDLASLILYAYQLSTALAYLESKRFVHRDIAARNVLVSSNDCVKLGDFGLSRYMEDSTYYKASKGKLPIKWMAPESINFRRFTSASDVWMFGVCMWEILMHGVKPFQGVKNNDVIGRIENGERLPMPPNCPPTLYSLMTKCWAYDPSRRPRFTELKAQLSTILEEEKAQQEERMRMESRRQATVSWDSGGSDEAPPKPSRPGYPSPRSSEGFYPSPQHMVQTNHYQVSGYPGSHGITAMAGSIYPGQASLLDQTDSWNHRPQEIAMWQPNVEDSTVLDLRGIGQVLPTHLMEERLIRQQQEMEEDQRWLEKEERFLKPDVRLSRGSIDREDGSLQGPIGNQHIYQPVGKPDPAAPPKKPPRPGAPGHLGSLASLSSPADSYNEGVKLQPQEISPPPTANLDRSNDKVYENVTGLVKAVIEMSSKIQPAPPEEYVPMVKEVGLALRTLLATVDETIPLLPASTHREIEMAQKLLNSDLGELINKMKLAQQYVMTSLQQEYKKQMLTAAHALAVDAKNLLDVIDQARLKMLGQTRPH
T1 sequence (Q9HCP0 whole entry): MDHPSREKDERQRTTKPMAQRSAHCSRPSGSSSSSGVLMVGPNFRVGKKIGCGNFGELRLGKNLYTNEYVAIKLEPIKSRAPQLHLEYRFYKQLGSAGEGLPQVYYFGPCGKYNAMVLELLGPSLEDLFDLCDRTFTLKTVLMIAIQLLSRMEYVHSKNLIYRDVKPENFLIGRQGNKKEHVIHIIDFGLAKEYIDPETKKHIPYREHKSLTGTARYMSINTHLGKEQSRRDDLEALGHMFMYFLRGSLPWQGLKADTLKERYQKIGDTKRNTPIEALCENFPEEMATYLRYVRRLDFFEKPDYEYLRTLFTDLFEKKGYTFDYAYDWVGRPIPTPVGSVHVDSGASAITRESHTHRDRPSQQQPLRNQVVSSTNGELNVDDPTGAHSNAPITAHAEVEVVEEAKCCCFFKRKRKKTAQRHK
T7 sequence (P45983 whole entry): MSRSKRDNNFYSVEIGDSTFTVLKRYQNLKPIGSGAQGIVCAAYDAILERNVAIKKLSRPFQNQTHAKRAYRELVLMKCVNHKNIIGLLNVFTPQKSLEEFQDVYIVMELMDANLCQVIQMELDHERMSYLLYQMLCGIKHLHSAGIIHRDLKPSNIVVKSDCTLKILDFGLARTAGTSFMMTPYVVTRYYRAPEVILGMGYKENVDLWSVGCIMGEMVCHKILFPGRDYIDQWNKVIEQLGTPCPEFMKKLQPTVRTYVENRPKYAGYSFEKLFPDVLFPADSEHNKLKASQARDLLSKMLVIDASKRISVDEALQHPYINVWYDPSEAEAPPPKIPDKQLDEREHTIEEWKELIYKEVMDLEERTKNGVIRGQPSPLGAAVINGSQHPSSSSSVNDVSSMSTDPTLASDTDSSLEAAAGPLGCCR

Row | Structure (SMILES) | IC50 (kinases (kinome) [1]) | IC50 (kinases (kinome) [2]) | IC50 (kinases (kinome) [3]) | IC50 (kinases (kinome) [4]) | IC50 (kinases (kinome) [5]) | IC50 (kinases (kinome) [6]) | IC50 (kinases (kinome) [7]) | IC50 (kinases (kinome) [8]) | IC50 (kinases (kinome) [9])
1 | CCNC(=O)Nc1ccc(-c2cc(-c3ccccc3C#N)nc(N3CCOC[C@@H]3C)n2)cc1 [Example 8, (S)-1-(4-(6-(2-cyanophenyl)-2-(3-methylmorpholino)pyrimidin-4-yl)phenyl)-3-ethylurea] | > 10 µM | > 10 µM | > 10 µM | > 10 µM | > 10 µM | > 10 µM | > 10 µM | > 10 µM | > 10 µM
2 | C[C@H]1COCCN1c1nc(-c2ccc(NC(=O)NC3CC3)cc2)cc(-c2ccccc2S(C)(=O)=O)n1 [Example 4, (S)-1-cyclopropyl-3-(4-(2-(3-methylmorpholino)-6-(2-(methylsulfonyl)phenyl)pyrimidin-4-yl)phenyl)urea] | > 10 µM | > 10 µM | > 10 µM | > 10 µM | > 10 µM | > 10 µM | > 10 µM | > 10 µM | > 10 µM
3 | C[C@H]1COCCN1c1nc(-c2ccc(NC(=O)NC3CC3)cc2)cc(-c2cccnc2S(C)(=O)=O)n1 [Example 46, (S)-1-cyclopropyl-3-(4-(2-(3-methylmorpholino)-6-(2-(methylsulfonyl)pyridin-3-yl)pyrimidin-4-yl)phenyl)urea] | > 10 µM | > 10 µM | > 10 µM | > 10 µM | > 10 µM | > 10 µM | > 10 µM | > 10 µM | > 10 µM

The next lines start with the values.

Row | IC50 (kinases (kinome) [1]) | IC50 (kinases (kinome) [2]) | IC50 (kinases (kinome) [3]) | IC50 (kinases (kinome) [4]) | IC50 (kinases (kinome) [5]) | IC50 (kinases (kinome) [6]) | IC50 (kinases (kinome) [7]) | IC50 (kinases (kinome) [8]) | IC50 (kinases (kinome) [9]) | Structure (SMILES)
4 | > 10 µM | > 10 µM | > 10 µM | > 10 µM | > 10 µM | > 10 µM | > 10 µM | > 10 µM | > 10 µM | C[C@H]1COCCN1c1cc(-c2ccccc2S(C)(=O)=O)nc(-c2ccc(NC(=O)NC3CC3)cc2)n1 [Example 6, (S)-1-cyclopropyl-3-(4-(4-(3-methylmorpholino)-6-(2-(methylsulfonyl)phenyl)pyrimidin-2-yl)phenyl)urea]
5 | > 10 µM | > 10 µM | – | > 10 µM | > 10 µM | > 10 µM | > 10 µM | > 10 µM | > 10 µM | C[C@H]1COCCN1c1nc(-c2ccc(NC(=O)N[C@H]3CCC[C@@H]3O)cc2)cc(-c2cc(F)ccc2S(C)(=O)=O)n1 [Example 76, 1-(4-(6-(5-fluoro-2-(methylsulfonyl)phenyl)-2-((S)-3-methylmorpholino)pyrimidin-4-yl)phenyl)-3-((1S,2S)-2-hydroxycyclopentyl)urea]
6 | > 10 µM | > 10 µM | > 10 µM | > 10 µM | > 10 µM | > 10 µM | > 10 µM | > 10 µM | > 10 µM | C[C@H]1COCCN1c1cc(-c2ccccn2)nc(-c2ccc(NC(=O)NCCO)cc2)n1 [Example 43, (S)-1-(2-hydroxyethyl)-3-(4-(4-(3-methylmorpholino)-6-(pyridin-2-yl)pyrimidin-2-yl)phenyl)urea]
7 | > 10 µM | > 10 µM | > 10 µM | > 10 µM | > 10 µM | > 10 µM | > 10 µM | > 10 µM | > 10 µM | C[C@H]1COCCN1c1nc(-c2ccc(NC(=O)NC3CC3)cc2)cc(-c2cc(F)ccc2S(C)(=O)=O)n1 [Example 40, (S)-1-cyclopropyl-3-(4-(6-(5-fluoro-2-(methylsulfonyl)phenyl)-2-(3-methylmorpholino)pyrimidin-4-yl)phenyl)urea]
